# Results as given in patent US20070259837A1, “Use of Non-Glucocorticoid Steroids for the Treatment of Muscular Dystrophy” (SANTHERA PHARMACEUTICALS (SCHWEIZ) AG, priority 2004, published 2007).
# Like-named read-outs stand apart in the source and are kept apart here.
# Test system: utrophin protein in human muscle cells derived from DMD patients
# Test: Cell-based ELISA for normalized utrophin protein level in primary human myotube cultures
# Conditions: for % UTR vs. PDN (normalized utrophin protein as % of PDN-treated sister cultures): same experiment; for activity at 0.5 µM: Myotube, read-out: % UTR vs. DMSO (normalized utrophin protein over DMSO-solvent treated control)
# Description: The method used to detect and determine utrophin-inducing activity of non-glucocorticoid steroids has been described previously (Courdier-Fruh, I., Barman, L., Briguet, A. & Meier, T.; 2002, Neuromuscul. Disord.; 12 Suppl:S95). Briefly, primary human muscle cell cultures were prepared according to standard protocols (Askanas V, Kwan H, Alvarez R B, Engel W K, Kobayashi T, Martinuzzi A, Hawkins E F., 1987, J Neurocytol., 16:523-537). Test compounds and the glucocorticoid 6α-methylprednisolone-21 sodium succinate (Pharmacia & Upjohn; Solu-Medrol®, PDN) as reference compound were applied at 500 nM final concentration as soon as myoblasts started to differentiate into myotubes. Incubation with the test compound was ended as soon as well differentiated myotubes have formed, typically resulting in an incubation time with a test compound for 3-7 days.
# Normalized concentrations of utrophin protein in human muscle cells cultured in microtiter plates were determined by a cell-based enzyme-linked immunosorbent assay (ELISA) procedure that allows a successive readout for the cell density and utrophin protein level. For calibration, the cell density and differentiation was determined by absorbance measurements of the total dehydrogenase enzyme activity in each well using the colorimetric CellTiter 96®AQ One Solution Reagent Proliferation Assay (Promega) according to the manufacturer's recommendation. Subsequently, cells were fixed, washed, permeabilized with 0.5% (v/v) Triton X-100 and unspecific antibody binding-sites were blocked by standard procedures. Utrophin protein levels were determined immunologically with utrophin-specific primary antibodies (mouse monoclonal antibody to the amino terminal portion of utrophin, NCL-DRP2, Novocastra Laboratories) and with appropriate peroxidase-coupled secondary antibodies using QuantaBlu™ Fluorogenic Peroxidase Substrate Kit (Pierce) for detection. Fluorescence measurements were carried out with a multilabel counter (Wallac) at λex=325 nm and at λem=420 nm. The primary readout of this signal is presented in arbitrary units. For calibration, the arbitrary units representing the relative utrophin protein content of each well were divided by the corresponding cell-titer absorbance value to correct for cell density. For comparison between experiments, the cell-titer corrected readout for utrophin protein content in each well was expressed in percent of solvent treated control cultures (set to 100%). PDN was included in all experiments as reference glucocorticoid, N=3-5 for each compound tested.
# Non-glucocorticoid test compounds, applied in a concentration of 500 nM, were regarded as “positive” in case the increase in the level of utrophin protein was at least 20% (mean value) over control cultures treated with the appropriate dilution of DMSO solvent as control and containing no test compound.
# A range of different pharmaceutical compounds were tested for their ability to increase levels of utrophin protein in primary human myotube cultures. The cell-based ELISA protocol used to detect the level of utrophin protein is provided above and described in Courdier-Fruh, I., Barman, L., Briguet, A. & Meier, T, 2002, Neuromuscul. Disord.: 12, Suppl:S95. Briefly, fixed and permeabilized human muscle cells derived from DMD patients and cultured in 96-well cell culture plates were incubated with antibodies specific for utrophin at a dilution of 1:1'000 in blocking solution (phosphate buffered saline (PBS) supplemented with 2% fetal calf serum and 1% bovine serum albumin) for 10-15 hours at 4° C. Following several washing steps with 0.1% Triton X-100 in PBS, peroxidase-coupled secondary antibodies diluted 1:3'000 in blocking solution were applied in each well for 1-2 hours at room temperature. Signal detection, data acquisition and normalization was performed as described above and in Courdier-Fruh, I., Barman, L., Briguet, A. & Meier, T, 2002, Neuromuscul. Disord.: 12, Suppl:S95. […]
# [1] = 500 nM compound, human muscle cultures, mean value, N=3-6
SMILES,% UTR vs. PDN (normalized utrophin protein as % of PDN-treated sister cultures) [1] [%],activity at 0.5 µM (Homo sapiens) [%],activity at 0.5 µM [1] [%],"inhibition of CDCA-mediated utrophin increase by glucocorticoid receptor antagonist RU38486 (500 nM CDCA + 500 nM RU38486 simultaneously, human DMD-patient derived muscle cells, FIG. 2)","utrophin protein levels normalized to cell density (UTR, relative units) compared to solvent-treated control (DMSO) (human DMD-patient derived muscle cells, 500 nM, FIG. 1 / FIG. 2, N=5-6, listed as CDCA)"
CC(=O)O[C@@H]1CC[C@]2(C)C3C[C@H](OC(C)=O)[C@]4(C)C(C(C)CCC(=O)O)CCC4C3CC[C@@H]2C1 (stereo partly shown) [Example 3],122,144,,,
CC(=O)O[C@@H]1CC[C@]2(C)C3C(=O)C[C@]4(C)C(C(C)CCC(=O)O)CCC4C3CC[C@@H]2C1 (stereo partly shown) [Example 4],112,130,,,
CC(CCC(=O)O)C1CCC2C3CC(=O)[C@@H]4C[C@H](O)CC[C@]4(C)C3CC[C@]12C (stereo partly shown) [Example 5],108,,136,,
CC(CCC(=O)O)C1CCC2C3CC[C@@H]4C[C@H](OC(=O)c5ccccc5)CC[C@]4(C)C3C(=O)C[C@]12C (stereo partly shown) [Example 6],106,123,,,
CC(=O)O[C@@H]1CC[C@]2(C)C3CC[C@]4(C)C(C(C)CCC(=O)O)CCC4C3CC[C@@H]2C1 (stereo partly shown) [Example 7],104,121,,,
CC(CCC(=O)O)C1CCC2C3CC[C@@H]4CC(=O)CC[C@]4(C)C3CC[C@]12C (stereo partly shown) [Example 8],99,,120,,
CC(CCC(=O)O)C1CCC2C3CC[C@@H]4C[C@H](O)CC[C@]4(C)C3CC[C@]12C (stereo partly shown) [Example 9],98,,119,,
CC(CCC(=O)O)C1CCC2C3C(CC[C@]12C)[C@@]1(C)CC[C@@H](O)C[C@H]1C[C@@H]3O (stereo partly shown) [Example 10],96,121,,,
"C[C@H](CCC(=O)O)[C@H]1CC[C@H]2[C@@H]3[C@H](O)C[C@@H]4C[C@H](O)CC[C@]4(C)[C@H]3CC[C@]12C [Example 11, 3α,7α-dihydroxy-5β-cholanic acid]",81,172,,not inhibited,significantly increased
CC(CCC(=O)O)C1CCC2C3CC=C4C[C@H](O)CC[C@]4(C)C3CC[C@]12C (stereo partly shown) [Example 13],96,126,,,
CC(=O)O[C@H]1CC[C@]2(C)C3C(=O)C[C@@]4(C)[C@H](C(C)CCC(=O)O)CC[C@]4(C)C3C(=O)CC2C1(C)C (stereo partly shown) [Example 14],92,115,,,
CC(CCC(=O)O)C1CCC2C3C(=O)C[C@@H]4CC(=O)CC[C@]4(C)C3CC(=O)[C@]12C (stereo partly shown) [Example 15],92,,117,,
C[C@H](C(=O)O)C1CCC2C3CC=C4C[C@H](O)CC[C@]4(C)C3CC[C@@]21C (stereo partly shown) [Example 16],104,136,,,
CCOC(=O)[C@H]1CCC2C3CC=C4C[C@@H](OC(=O)c5ccccc5)CC[C@]4(C)C3CC[C@@]21C (stereo partly shown) [Example 17],103,120,,,
C[C@]12CCC(=O)C=C1CCC1C2CC[C@]2(C)[C@@H](C(=O)O)CC[C@]12O (stereo partly shown) [Example 18],101,120,,,
CC(=O)O[C@@H]1CC[C@]2(C)C3CC[C@]4(C)[C@@H](C(=O)O)[C@@H](OC(C)=O)C[C@]4(O)C3CC[C@@H]2C1 (stereo partly shown) [Example 19],98,123,,,

SMILES,% UTR vs. PDN (normalized utrophin protein as % of PDN-treated sister cultures) [1] [%],activity at 0.5 µM (Homo sapiens) [%],activity at 0.5 µM [1] [%],"inhibition of CDCA-mediated utrophin increase by glucocorticoid receptor antagonist RU38486 (500 nM CDCA + 500 nM RU38486 simultaneously, human DMD-patient derived muscle cells, FIG. 2)","utrophin protein levels normalized to cell density (UTR, relative units) compared to solvent-treated control (DMSO) (human DMD-patient derived muscle cells, 500 nM, FIG. 1 / FIG. 2, N=5-6, listed as CDCA)"
CC1CC[C@@]2(OC1)O[C@H]1C[C@H]3[C@@H]4CC[C@H]5C[C@@H](OC(=O)c6ccccc6)CC[C@]5(C)C4=CC(=O)[C@]3(C)C1[C@@H]2C (stereo partly shown) [Example 20],113,131,,,
CC(=O)O[C@H]1CC[C@]2(C)C3C[C@@H](O)[C@]4(C)C5[C@H](C[C@H]4[C@@H]3CC[C@H]2C1)O[C@]1(CCC(C)CO1)[C@H]5C (stereo partly shown) [Example 21],105,130,,,
CC1CC[C@@]2(OC1)O[C@H]1C[C@H]3[C@@H]4CC[C@H]5C[C@@H](OC(=O)c6ccccc6)CC[C@]5(C)C4=CC[C@]3(C)C1[C@@H]2C (stereo partly shown) [Example 22],106,123,,,
CC(=O)O[C@H]1CC[C@]2(C)C3=CC(=O)[C@]4(C)C5[C@H](C[C@H]4[C@@H]3CC[C@H]2C1)O[C@]1(CCC(C)CO1)[C@H]5C (stereo partly shown) [Example 23],103,129,,,
CC(=O)O[C@H]1CC[C@]2(C)C3C(=O)[C@@H](OC(C)=O)[C@]4(C)C5[C@H](C[C@H]4[C@@H]3CC[C@H]2C1)O[C@]1(CCC(C)CO1)[C@H]5C (stereo partly shown) [Example 24],103,134,,,
CC(=O)O[C@H]1CC[C@]2(C)C3C=C[C@]4(C)C5[C@H](C[C@H]4[C@@H]3CC[C@H]2C1)O[C@]1(CCC(C)CO1)[C@H]5C (stereo partly shown) [Example 25],102,129,,,
COC(=O)CCC(=O)O[C@H]1CC[C@]2(C)C3C(=O)[C@@H](O)[C@]4(C)C5[C@H](C[C@H]4[C@@H]3CC[C@H]2C1)O[C@]1(CCC(C)CO1)[C@H]5C (stereo partly shown) [Example 26],98,123,,,
CC1CC[C@@]2(OC1)O[C@H]1C[C@H]3[C@@H]4CC[C@H]5C[C@@H](O)CC[C@]5(C)C4CC(=O)[C@]3(C)C1[C@@H]2C (stereo partly shown) [Example 27],97,122,,,
CC1CC[C@@]2(OC1)O[C@H]1C[C@H]3[C@@H]4CC[C@H]5CC(=O)CC[C@]5(C)C4CC[C@]3(C)C1[C@@H]2C (stereo partly shown) [Example 28],93,120,,,
CC1CC[C@@]2(OC1)O[C@H]1C[C@H]3[C@@H]4CC[C@H]5C[C@@H](O)CC[C@]5(C)C4CC[C@]3(C)C1[C@@H]2C (stereo partly shown) [Example 29],91,120,,,
CC(C)CCCC(C)[C@H]1CCC2C3C(=O)C[C@H]4C[C@@H](OC(=O)c5ccccc5)CC[C@]4(C)C3CC[C@@]21C (stereo partly shown) [Example 30],109,127,,,
CC(C)CCCC(C)[C@H]1CCC2C3C(=O)C=C4C[C@@H](O)CC[C@]4(C)C3CC[C@@]21C (stereo partly shown) [Example 31],109,137,,,
CC(C)CCCC(C)[C@H]1CCC2C3CC[C@H]4CC(=O)CC[C@]4(C)C3CC[C@@]21C (stereo partly shown) [Example 32],104,132,,,
CC(C)CCCC(C)[C@H]1CCC2C3=CC[C@H]4C[C@@H](O)CC[C@]4(C)C3CC[C@@]21C (stereo partly shown) [Example 33],99,125,,,
CC(C)CCCC(C)[C@H]1CCC2C3CC[C@H]4C[C@H](O)CC[C@]4(C)C3CC[C@@]21C (stereo partly shown) [Example 34],97,125,,,
